Data as given in patent publication US11571485B2, “Peptides and antibodies for detecting changes in alzheimer's disease brain and methods of use thereof” (Sanford Burnham Prebys Medical Discovery Institute, priority 2016, dated 2023).
Entries after “also recorded” stand apart in the source; their conditions may differ. Where no end group is shown, it is not given here.

Assays:
[1] = test system: AD and WT mouse brain sections; assay: Overlay binding of peptide-coated silver nanoparticles on frozen mouse brain sections
Description: CASPRLSKC recognizes the AD hippocampus in tissue section overlay assay. Silver nanoparticles were coated with the CASPRLSKC peptide or a control peptide and used to overlay brain sections from AD and normal mice. Silver staining was used to visualize binding and nuclei were stained with nuclear fast red. The CASPRLSKC nanoparticles bind to elongated structures that may represent nerve fibers. These structures are not present in the normal brain.
Binding of DAG conjugated silver nanoparticles on frozen brain sections from AD or WT animals in overlay binding assay was also tested. […] This binding is restricted to the hippocampal region CA1 and the dentate gyms. Frozen coronal sections from AD and WT mice were used for overlay experiments with DAG-AgNPs. Silver staining was used to visualize binding and nuclei were stained with nuclear fast red.
Silver nanoparticles (AgNPs) with PEG coating and peptide functionality were prepared as reported previously with some modifications (Braun et al., Nature materials 13, 904-911 (2014)). AgNPs of ˜35 nm diameter were synthesized by citrate acid reduction of silver nitrate in solution. First, AgNO3 (450 mg) dissolved in 2.5 L water was stirred and heated to a boil and 50 mL water containing trisodium citrate dihydrate (500 mg, Sigma) was added. After 30 min the solution was cooled to room temperature. The resulting optical density at 405 nm was ˜10. […]

[2] = test system: human iPS cell-derived endothelial cells (ECs) from an AD patient; assay: AgNP binding to hiPSC-derived brain endothelial cells; type: cell-based; details: for Binding to AD patient iPS cell-derived endothelial cells: AD patient vs normal donor cells
Description: Human iPS cell-derived from an AD patient and from a normal individual were differentiated into endothelial cells and the cultured cells were used in an overlay assay with DAG-coated and control AgNP.
The details of human induced pluripotent stem cells (hiPSCs) derived from Alzheimer disease patients with APP duplication, and non-demented control individuals, are described previously (Israel et al., Nature 482, 216-220 (2012)). These hiPSCs were extensively characterized and have been established as an excellent human model for AD. An additional AD hiPSC line generated from dermal fibroblasts from an individual harboring a Presenilinl (PSEN1) mutation (Coriell Institute, Cat #AG06840) was used to further validate the results from the APP lines. hiPSCs were routinely maintained on mouse embryonic fibroblast as described before (Lin et al., Nat Methods 6, 805-808 (2009); Talantova et al., Proc Natl Acad Sci USA 110, E2518-2527 (2013)). Brain microvascular endothelial cells differentiation of hiPSCs was performed using a previously described protocol (Lippmann et al., Nature biotechnology 30, 783-791 (2012), with minor modifications. Briefly, feeder-free cultures of hiPSCs were allowed to spontaneously differentiate in the absence of bFGF for 5-7 days, and then transferred to Endothelial cell (EC) medium composed of human Endothelial Serum-Free Medium™ (Invitrogen) supplemented with 20 ng/ml bFGF and 1% platelet-poor plasma-derived bovine serum (PDS; Biomedical Technologies). After 1-2 days the cells were dissociated with dispase (2 mg/ml) and were plated on 12 well plates coated with a mixture of collagen IV (400 μg/ml) and fibronectin (100 μg/ml). Cells were then cultured in EC medium until they reached confluence, after which they were split and expanded to near 100% purity. BBB-type EC identity was confirmed by flow cytometry or double immunoreactivity to the hallmark efflux transporter p-glycoprotein and other EC markers (CD31, GLUT-1, PECAM, Occludin, and Claudin-5). Furthermore, the capability of these cells to make functional tight junctions and polarized efflux activity was validated using a dual chamber efflux transport assay as described before.
(§1) Cell binding experiments on U251 cells and hiPSCs were with done using peptide conjugated AgNP. U251 cells were cultured in a 96-well plate. The cells were blocked with 200 μl of 10% FCS in HBSS (Hanks' Balanced Salt Solution from Gibco) for 30 min at 37° C. Following that, DAG-AgNPs (0.5 nM concentration diluted in HBSS) alone or in the presence of free non-labeled peptide (200 μM) were incubated on the cells for 1 hour at 37° C. After washing the unbound AgNP with HBSS three times, the plates were imaged with fluorescent microscopy by looking at intrinsic emission from the FAM tag on the peptide. hiPSCs were cultured in 48 well plate and similar protocol as described above was followed, with the exception that AgNP concentration for incubation was kept at 0.15 nM. Nanoparticle binding was quantified from fluorescence micrographs using ImageJ™ software.

[3] = test system: human astrocytoma U251 cells; assay: AgNP binding to U251 cells; type: cell-based
Procedure: FIG. 7 is a graphical representation showing quantity of DAG-coated silver nanoparticles (DAG-AgNPs) binding to human astrocytoma U251 cells. Cultured U251 cells were incubated with DAG-AgNPs alone, in the presence of free non-labeled control peptide, or an excess of free, non-labeled DAG (both at 200 μM), for 1 hour at 37° C. Nanoparticle binding was quantified from fluorescence micrographs using ImageJ™ software. Scale bar, 20 μm.
as §1

[4] = test system: human AD brain sections; assay: Ex vivo overlay binding to human AD brain sections; details: overlay
Procedure: PFA fixed sections were incubated in PBS for 10 minutes, followed by PBS-Triton-x-100 (0.2%) for 10 minutes. Sections were rinsed with PBST, mounted in a slide holder, and subsequently washed with PBS-T during 12 minutes. Slides were blocked with blocking buffer for 60 minutes at room temperature. Then, peptides were incubated at a concentration of 10 μg/mL dissolved in concentrated blocking buffer, for three hours at room temperature. Sections were then washed with three 4-minute washes of PBS-T, and subsequently fixed with PFA for 10 minutes, followed by three 3-minute washes with PBS-T. Sections were then incubated with primary antibody at 1/200 in diluted blocking buffer overnight at 4° C. Later, sections were washed with three 4-minute washes with PBS-T. Slides were then incubated with secondary antibody at 1/200 dilution in diluted blocking buffer for 30 minutes at room temperature, followed by three 4-minute washes of PBS-T. Sections were then counterstained with DAPI for 5 minutes, washed with PBS-T and mounted.
Postmortem human brain samples were obtained from the New York Brain Bank at Columbia University, New York. The patient was a person with a diagnosis of AD neuropathologic changes ([A3, B3, C3]). The normal brain tissue was obtained from BioChain Institute Inc. (Newark, Calif.). The donor was a person without any neurologic diagnosis on detailed neuropathologic evaluation. The Parkinson's disease brain tissue was obtained from UCSD Pathology bank. Frozen brain tissue was sectioned for immunohistochemistry and ex vivo overlay binding with FAM-peptides.

Binding to AD brain sections compared to age-matched wild-type brain sections ([1]; frozen brain sections, overlay binding assay): over 10 fold
Binding to hippocampal CA1 region in AD brains versus WT brains ([1]; frozen coronal sections, hippocampal CA1 region): 14 fold
Substance: DAG-AgNPs: DAG-coated silver nanoparticles with PEG coating, FAM-cys-x-DAG-NH2 attached (CDAGRKQKC-NH2; not fully specified (N-terminus); also: attached via extra Cys thiol to maleimide-PEG on silver nanoparticles)
Inhibition of AgNP binding by free DAG peptide ([2]; 200 μM free non-labeled DAG): inhibited by the presence of free DAG peptide
Binding to AD patient iPS cell-derived endothelial cells [2]: bind to human iPS cell-derived endothelial cells (ECs) from an AD patient, but not to ECs derived from a normal donor; also recorded: binding to human IPS cell-derived endothelial cells (ECs) from an AD patient, but not to ECs derived from a normal donor
Binding to AD patient iPS cell-derived endothelial cells ([2]; listed as DAG-AgNP): high binding
Binding to U251 cells ([3]; 1 hour at 37° C.): bound robustly to these cells, much more so than non-targeted nanoparticles
Inhibition of binding to U251 cells by free DAG ([3]; excess free non-labeled DAG, 200 μM): inhibited by co-incubation with an excess of free, non-labeled DAG
Binding to human AD brain sections [4]: bind to sections from an AD patient with sporadic AD
